Test results: article PMC7956643, “Synthesis of Novel Pyrido[1,2-c]pyrimidine Derivatives with 6-Fluoro-3-(4-piperidynyl)-1,2-benzisoxazole Moiety as Potential SSRI and 5-HT1A Receptor Ligands” (International Journal of Molecular Sciences, 2021)
Marks after values point to notes of the source that are not given here. Each block holds one molecule with its values, some of them ahead of it.

What was measured:
5-HT7 receptors = target: T1, 5-HT7 receptors (Homo sapiens, UniProt P34969); experiment: 5-HT7 radioligand binding assay; details: [3H]-5-CT; HEK293 cells, human receptor
T1 construct: expressed in transfected cells
Description: (§1) In vitro radioligand binding assays for 5-HT2A, 5-HT6, 5-HT7 and D2 receptors were carried out using methods published by Zajdel et al.. For the assays, HEK293 cell cultures stably expressing the investigated human receptors were used. Cell pellets were thawed and homogenized in 20 vol of assay buffer using an Ultra Turrax tissue homogenizer, then centrifuged twice at 35000 g for 20 min at 4 °C, with incubation for 15 min at 37 °C in between. The composition of the assay buffers was as follows: for 5-HT2A receptors—50 mM Tris-HCl, 0.1 mM EDTA, 4 mM MgCl2 and 0.1% ascorbate; for 5-HT6 receptors—50 mM Tris-HCl, 0.5 mM EDTA, 4 mM MgCl2; for 5-HT7 receptors—50 mM Tris-HCl, 4 mM MgCl2, 10 µM pargyline and 0.1% ascorbate; for D2 receptors—50 mM Tris-HCl, 1 mM EDTA, 4 mM MgCl2, 120 mM NaCl, 5 mM KCl, 1.5 mM CaCl2 and 0.1% ascorbate. All assays were incubated in total volume of 200 mL in 96-well microtitre plates for 1 h at 37 °C, except for 5-HT2A receptors which were incubated at room temperature for 1.5 h. The process of equilibration was terminated by rapid filtration through Unifilter plates with a 96-well cell harvester, and radioactivity retained on the filters was quantified on a Microbeta plate reader (PerkinElmer, USA). For displacement studies, the assay samples contained as radioligands (PerkinElmer): 2 nM [^3H]-ketanserin (spec. act. 53.4 Ci/mmol) for 5-HT2A receptors; 2 nM [^3H]-LSD (spec. act. 83.6 Ci/mmol) for 5-HT6 receptors; 0.6 nM [^3H]-5-CT (spec. act. 39.2 Ci/mmol) for 5-HT7 receptors and [^3H]-raclopride (spec. act. 76.0 Ci/mmol) for D2 receptors. […] Each compound was tested in triplicate at 7–8 concentrations (10^-11-10^-4 M). The inhibition constants (Ki) were calculated from the Cheng–Prusoff equation [46]. Results were expressed as means of at least two separate experiments.

5-HT6 receptors = target: T2, 5-HT6 receptors (Homo sapiens, UniProt P50406); experiment: 5-HT6 radioligand binding assay; details: [3H]-LSD; HEK293 cells, human receptor
T2 construct: expressed in transfected cells
Description: as §1

5-HT1A receptor [1] = target: T3, 5-HT1A receptor (Mus musculus, UniProt Q64264); experiment: Body temperature in mice (induced hypothermia); format: in vivo, CD-1 mice; details: mice
T3 construct: from tissue; host or cells: whole animal, male CD-1 mice
T3 sequence (Q64264 1-421): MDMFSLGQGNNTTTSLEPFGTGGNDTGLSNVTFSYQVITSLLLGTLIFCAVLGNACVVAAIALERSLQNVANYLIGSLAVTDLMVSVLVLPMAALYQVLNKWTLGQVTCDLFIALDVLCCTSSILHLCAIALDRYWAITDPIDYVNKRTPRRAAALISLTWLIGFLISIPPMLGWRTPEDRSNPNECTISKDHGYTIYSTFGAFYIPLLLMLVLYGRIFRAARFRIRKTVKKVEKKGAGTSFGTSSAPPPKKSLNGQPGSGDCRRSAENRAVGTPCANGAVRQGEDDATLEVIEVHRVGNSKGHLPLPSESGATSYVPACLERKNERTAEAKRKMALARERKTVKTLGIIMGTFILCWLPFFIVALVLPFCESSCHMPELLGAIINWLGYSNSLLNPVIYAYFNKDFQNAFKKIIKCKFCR
Description: (§2) The experiments were performed on male CD-1 mice (23–40 g). The animals were kept at room temperature (21 ± 2 °C) on a natural day-night cycle (March–October) and housed under standard laboratory conditions. They had free access to food and tap water before the experiment. Each experimental group consisted of 6–8 animals/dose. All the animals were used only once. 8-Hydroxy-2-(di-n-propylamino)tetralin hydro-bromide (8-OH-DPAT, Research Biochemical Inc.) was used as aqueous solution. […] Vehicle group was administered as 10% aqueous solution of dimethyl sulphoxide (DMSO). 8-OH-DPAT was injected subcutaneously (sc); 6a and 7g were given intraperitoneally (ip) in a volume of 10 mL/kg/mice. The obtained data were analyzed by Dunnett’s test (one drug administration) or by the Newman–Keuls test (two drugs administrations). Forced swim test: the obtained data was evaluated by one-way analysis of variance (ANOVA) followed by the Dunnett’s multiple comparisons test: p < 0.05 was considered significant.
(§3) The results were expressed as a change in body temperature (Δt) with respect to the basal body temperature, as measured at the beginning of the experiment.

D2 receptors = target: T4, D2 receptors (Homo sapiens, UniProt P14416); experiment: D2 radioligand binding assay; details: [3H]-raclopride; HEK293 cells, human receptor
T4 construct: expressed in transfected cells
Description: as §1

5-HT1A receptor [2] = target: T3, 5-HT1A receptor; experiment: Effect of WAY-100635 on the hypothermia induced by tested compounds; format: in vivo, CD-1 mice; details: mice
Description: as §2, §3

SERT protein = target: T5, SERT protein (Rattus norvegicus, UniProt P31652); experiment: SERT radioligand binding assay; details: [3H]-citalopram 1.0 nM; rat cortex tissue
T5 construct: from tissue; host or cells: rat cortex
Description: Radioligand binding was performed using rat cortex tissue. All assays were carried out in duplicate. First, 50 µL working solution of the tested compounds, 50 µL [^3H]-citalopram (final concentration 1.0 nM) and 150 µL tissue suspension, prepared in assay buffer (50 mM Tris. pH 7.7; 150 mM NaCl; 5 mM KCl), were transferred to a polypropylene 96-well microplate using 96-wells pipetting station Rainin Liquidator (MettlerToledo). […] The reaction was terminated by rapid filtration through GF/B filter mate presoaked with 0.3% polyethyleneimine for 30 min. Ten rapid washes with 200 µL 50 mM Tris buffer (4 °C, pH 7.7) were performed using an automated harvester system—Harvester-96 MACH III FM (Tomtec). […] Data were fitted to a one-site curve-fitting equation with Prism 6 (GraphPad Software) and Ki values were estimated from the Cheng–Prusoff equation.

human 5-HT1A receptor = target: T6, human 5-HT1A receptor (Homo sapiens, UniProt P08908); experiment: 5-HT1A radioligand binding assay; details: [3H]-8-OH-DPAT 1 nM; membranes from CHO-K1 cells with human 5-HT1A receptor
T6 construct: purchased PerkinElmer; host or cells: CHO-K1 cells, stably transfected
T6 sequence (P08908 1-422): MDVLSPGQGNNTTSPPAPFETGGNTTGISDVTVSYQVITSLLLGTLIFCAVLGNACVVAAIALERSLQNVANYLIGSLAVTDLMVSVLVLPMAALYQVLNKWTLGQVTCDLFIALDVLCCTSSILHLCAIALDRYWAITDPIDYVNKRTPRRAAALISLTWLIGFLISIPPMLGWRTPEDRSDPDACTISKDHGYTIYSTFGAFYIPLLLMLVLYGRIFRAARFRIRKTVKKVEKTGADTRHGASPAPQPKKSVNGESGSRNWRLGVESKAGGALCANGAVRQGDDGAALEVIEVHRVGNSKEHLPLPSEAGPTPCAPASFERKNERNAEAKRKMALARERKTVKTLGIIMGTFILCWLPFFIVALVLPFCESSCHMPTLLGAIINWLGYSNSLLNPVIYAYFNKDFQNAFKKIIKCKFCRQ
Description: Radioligand binding was performed using membranes from CHO-K1 cells stably transfected with the human 5-HT1A receptor (PerkinElmer, Fremont, CA, USA). All assays were carried out in duplicate. Then, 50 µL working solution of the tested compounds, 50 µL [^3H]-8-OH-DPAT (final concentration 1 nM) and 150 µL diluted membranes (20 µg protein per well) prepared in assay buffer (50 mM Tris, pH 7.4, 10 mM MgSO4, 0.5 mM EDTA, 0.1% ascorbic acid) were transferred to a polypropylene 96-well microplate using 96-wells pipetting station Rainin Liquidator (MettlerToledo, Columbus, OH, USA). […] The reaction was terminated by rapid filtration through GF/B filter mate, presoaked with 0.5% polyethyleneimine for 30 min. Ten rapid washes with 200 µL 50 mM Tris buffer (4 °C, pH 7.4) were performed using an automated harvester system—Harvester-96 MACH III FM (Tomtec, Hamden, CT, USA). […] Data were fitted to a one-site curve-fitting equation with Prism 6 (GraphPad Software, San Diego, CA, USA) and Ki values were estimated from the Cheng–Prusoff equation.

5-HT2A receptors = target: T7, 5-HT2A receptors (Homo sapiens, UniProt P28223); experiment: 5-HT2A radioligand binding assay; details: [3H]-ketanserin; HEK293 cells, human receptor
T7 construct: expressed in transfected cells
Description: as §1, with “All assays were incubated in total volume of 200 mL in 96-well microtitre plates for 1 h at 37 °C, except for 5-HT2A receptors which were incubated at room temperature for 1.5 h.” left out

T5 sequence (P31652 whole entry): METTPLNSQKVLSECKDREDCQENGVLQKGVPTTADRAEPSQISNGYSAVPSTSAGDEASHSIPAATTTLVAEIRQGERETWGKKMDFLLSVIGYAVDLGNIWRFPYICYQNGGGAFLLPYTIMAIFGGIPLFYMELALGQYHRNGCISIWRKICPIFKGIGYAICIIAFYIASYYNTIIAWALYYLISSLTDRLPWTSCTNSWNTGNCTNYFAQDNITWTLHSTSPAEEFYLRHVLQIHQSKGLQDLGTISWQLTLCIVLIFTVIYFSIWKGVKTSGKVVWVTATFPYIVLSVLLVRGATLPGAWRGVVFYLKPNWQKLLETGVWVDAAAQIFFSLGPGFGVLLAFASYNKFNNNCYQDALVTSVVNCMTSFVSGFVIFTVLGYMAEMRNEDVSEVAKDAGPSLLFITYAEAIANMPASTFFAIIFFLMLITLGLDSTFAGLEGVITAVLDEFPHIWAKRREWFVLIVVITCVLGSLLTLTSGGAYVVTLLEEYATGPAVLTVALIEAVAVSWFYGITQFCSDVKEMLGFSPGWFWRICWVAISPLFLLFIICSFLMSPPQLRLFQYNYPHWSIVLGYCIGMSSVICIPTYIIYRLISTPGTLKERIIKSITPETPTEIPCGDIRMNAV
T1 sequence (P34969 whole entry): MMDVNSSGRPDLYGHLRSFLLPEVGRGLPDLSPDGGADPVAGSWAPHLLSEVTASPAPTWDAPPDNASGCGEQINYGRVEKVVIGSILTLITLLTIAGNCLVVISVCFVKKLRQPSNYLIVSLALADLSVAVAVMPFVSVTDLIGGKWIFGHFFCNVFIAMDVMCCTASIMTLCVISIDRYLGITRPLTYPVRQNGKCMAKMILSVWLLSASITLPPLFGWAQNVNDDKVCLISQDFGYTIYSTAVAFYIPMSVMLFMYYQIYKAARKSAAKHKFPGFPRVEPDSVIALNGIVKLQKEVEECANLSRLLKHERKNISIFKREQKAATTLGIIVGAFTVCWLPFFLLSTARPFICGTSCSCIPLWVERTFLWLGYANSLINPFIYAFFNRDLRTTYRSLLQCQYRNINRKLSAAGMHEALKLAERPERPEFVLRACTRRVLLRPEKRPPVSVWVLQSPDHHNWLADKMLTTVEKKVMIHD
T7 sequence (P28223 whole entry): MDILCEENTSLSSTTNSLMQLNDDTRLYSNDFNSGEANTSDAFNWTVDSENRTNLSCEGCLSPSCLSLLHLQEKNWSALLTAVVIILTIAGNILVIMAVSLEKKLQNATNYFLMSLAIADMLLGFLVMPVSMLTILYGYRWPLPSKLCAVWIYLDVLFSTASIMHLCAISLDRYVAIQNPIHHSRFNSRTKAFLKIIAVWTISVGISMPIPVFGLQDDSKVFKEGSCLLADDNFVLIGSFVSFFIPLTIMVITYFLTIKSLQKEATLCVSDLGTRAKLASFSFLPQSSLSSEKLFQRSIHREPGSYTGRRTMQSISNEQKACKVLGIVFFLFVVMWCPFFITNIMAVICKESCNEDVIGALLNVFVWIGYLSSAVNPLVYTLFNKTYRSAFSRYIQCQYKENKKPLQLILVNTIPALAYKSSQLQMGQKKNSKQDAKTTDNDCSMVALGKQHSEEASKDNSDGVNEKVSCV
T2 sequence (P50406 whole entry): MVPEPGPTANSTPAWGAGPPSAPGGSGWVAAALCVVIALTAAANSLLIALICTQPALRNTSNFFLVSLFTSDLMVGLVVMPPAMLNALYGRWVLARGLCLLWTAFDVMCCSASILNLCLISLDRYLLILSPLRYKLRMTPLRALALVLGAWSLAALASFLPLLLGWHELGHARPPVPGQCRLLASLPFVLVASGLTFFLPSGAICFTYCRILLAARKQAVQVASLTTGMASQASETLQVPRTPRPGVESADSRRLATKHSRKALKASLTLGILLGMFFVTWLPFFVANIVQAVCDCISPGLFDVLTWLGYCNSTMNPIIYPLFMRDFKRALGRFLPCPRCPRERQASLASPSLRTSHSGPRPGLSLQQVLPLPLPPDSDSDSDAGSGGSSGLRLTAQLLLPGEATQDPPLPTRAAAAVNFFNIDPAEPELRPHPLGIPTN
T4 sequence (P14416 whole entry): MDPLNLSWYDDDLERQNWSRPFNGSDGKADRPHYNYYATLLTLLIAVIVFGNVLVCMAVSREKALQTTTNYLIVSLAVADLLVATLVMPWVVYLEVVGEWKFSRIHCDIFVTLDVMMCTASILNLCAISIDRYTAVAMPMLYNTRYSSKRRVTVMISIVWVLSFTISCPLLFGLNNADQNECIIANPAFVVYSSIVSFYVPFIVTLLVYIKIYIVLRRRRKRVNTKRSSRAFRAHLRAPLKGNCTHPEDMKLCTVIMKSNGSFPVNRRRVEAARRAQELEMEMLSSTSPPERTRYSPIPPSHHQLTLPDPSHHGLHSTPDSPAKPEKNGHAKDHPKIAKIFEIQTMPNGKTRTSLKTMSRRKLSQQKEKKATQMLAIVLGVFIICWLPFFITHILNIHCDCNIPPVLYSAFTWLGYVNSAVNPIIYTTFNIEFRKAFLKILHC

melting point: 108 to 109 °C | Ki (5-HT7 receptors): 94 ± 11 nM | Ki (5-HT6 receptors): 400 ± 32 nM | Induction of hypothermia in mice (5-HT1A receptor [1]): induced hypothermia | Δt ± SEM, body temperature (5-HT1A receptor [1]; 1.25 mg/kg ip, 30 min): −1.5 ± 0.3 ^b °C | Δt ± SEM, body temperature (5-HT1A receptor [1]; 1.25 mg/kg ip, 60 min): −1.7 ± 0.3 ^b °C | Δt ± SEM, body temperature (5-HT1A receptor [1]; 1.25 mg/kg ip, 90 min): −1.3 ± 0.4 ^b °C | Δt ± SEM, body temperature (5-HT1A receptor [1]; 1.25 mg/kg ip, 120 min): −1.0 ± 0.3 °C | Δt ± SEM, body temperature (5-HT1A receptor [1]; 2.5 mg/kg ip, 30 min): −2.2 ± 0.2 ^b °C | Δt ± SEM, body temperature (5-HT1A receptor [1]; 2.5 mg/kg ip, 60 min): −2.8 ± 0.3 ^b °C | Δt ± SEM, body temperature (5-HT1A receptor [1]; 2.5 mg/kg ip, 90 min): −2.9 ± 0.3 ^b °C | Δt ± SEM, body temperature (5-HT1A receptor [1]; 2.5 mg/kg ip, 120 min): −3.0 ± 0.4 ^b °C | Δt ± SEM, body temperature (5-HT1A receptor [1]; 5 mg/kg ip, 30 min): −2.1 ± 0.1 ^b °C | Δt ± SEM, body temperature (5-HT1A receptor [1]; 5 mg/kg ip, 60 min): −3.4 ± 0.3 ^b °C | Δt ± SEM, body temperature (5-HT1A receptor [1]; 5 mg/kg ip, 90 min): −3.9 ± 0.5 ^b °C | Δt ± SEM, body temperature (5-HT1A receptor [1]; 5 mg/kg ip, 120 min): −4.2 ± 0.8 ^b °C | Ki (D2 receptors): 10 ± 1 nM | Δt ± SEM, body temperature (5-HT1A receptor [2]; WAY-100635 0.1 mg/kg sc 15 min before compound 1.25 mg/kg, 30 min): −1.2 ± 0.2 ^b °C | Δt ± SEM, body temperature (5-HT1A receptor [2]; WAY-100635 0.1 mg/kg sc 15 min before compound 1.25 mg/kg, 60 min): −0.7 ± 0.3 ^d °C | Δt ± SEM, body temperature (5-HT1A receptor [2]; vehicle + compound 1.25 mg/kg, 30 min): −1.5 ± 0.3 ^c °C | Δt ± SEM, body temperature (5-HT1A receptor [2]; vehicle + compound 1.25 mg/kg, 60 min): −1.7 ± 0.3 ^c °C
SMILES: COc1ccc(-c2c3n(c(=O)n(CCCCN4CCC(c5noc6cc(F)ccc56)CC4)c2=O)CCCC3)cc1 [Compound 7g, 4-(4-Methoxyphenyl)-2-{4-[4-(6-fluoro-1,2-benzoxazol)-1-piperidyl]butyl}-5,6,7,8-tetrahydro-pyrido[1,2-c]pyrimidine-1,3-dione]

Ki (SERT protein): 48 ± 2.4 nM | Ki (human 5-HT1A receptor): 5 ± 0.5 nM | Ki (5-HT2A receptors): 16 ± 2 nM
SMILES: COc1ccc(-c2c3n(c(=O)n(CCCCN4CCC(c5noc6cc(F)ccc56)CC4)c2=O)CCCC3)cc1 [Compound 7g]

Ki (SERT protein): 311 ± 35 nM | melting point: 57 to 60 °C | Ki (human 5-HT1A receptor): 9.5 ± 1.1 nM | Ki (5-HT2A receptors): 44 ± 6 nM | Ki (5-HT7 receptors): 161 ± 27 nM | Ki (5-HT6 receptors): 740 ± 183 nM | Ki (D2 receptors): 17 ± 2 nM
SMILES: O=c1c(-c2ccc(F)cc2)c2n(c(=O)n1CCCCN1CCC(c3noc4cc(F)ccc34)CC1)CCCC2 [Compound 7i, 4-(4-Fluorophenyl)-2-{4-[4-(6-fluoro-1,2-benzoxazol)-1-piperidyl]butyl}-5,6,7,8-tetrahydro-pyrido[1,2-c]pyrimidine-1,3-dione]
